Reference: patent US20130196050A1, “SALTY TASTE ENHANCER” (AJINOMOTO CO., INC., priority 2010, published 2013)

What was measured:
[1] = target: T1, Human ENaC δ, β and γ subunit (Homo sapiens, UniProt P51168+P51170+P51172); assay: Measurement of ENaC activation potency (two electrode voltage clamp current in ENaC-expressing oocyte); type: cell-based; settings: lowest concentration increasing the current value by not less than 10% vs before addition
T1 construct: expressed in transfected cells; host or cells: Xenopus laevis (African clawed frog) oocytes injected with cRNA
T1 sequence (P51172 1-638 isoform P51172-1): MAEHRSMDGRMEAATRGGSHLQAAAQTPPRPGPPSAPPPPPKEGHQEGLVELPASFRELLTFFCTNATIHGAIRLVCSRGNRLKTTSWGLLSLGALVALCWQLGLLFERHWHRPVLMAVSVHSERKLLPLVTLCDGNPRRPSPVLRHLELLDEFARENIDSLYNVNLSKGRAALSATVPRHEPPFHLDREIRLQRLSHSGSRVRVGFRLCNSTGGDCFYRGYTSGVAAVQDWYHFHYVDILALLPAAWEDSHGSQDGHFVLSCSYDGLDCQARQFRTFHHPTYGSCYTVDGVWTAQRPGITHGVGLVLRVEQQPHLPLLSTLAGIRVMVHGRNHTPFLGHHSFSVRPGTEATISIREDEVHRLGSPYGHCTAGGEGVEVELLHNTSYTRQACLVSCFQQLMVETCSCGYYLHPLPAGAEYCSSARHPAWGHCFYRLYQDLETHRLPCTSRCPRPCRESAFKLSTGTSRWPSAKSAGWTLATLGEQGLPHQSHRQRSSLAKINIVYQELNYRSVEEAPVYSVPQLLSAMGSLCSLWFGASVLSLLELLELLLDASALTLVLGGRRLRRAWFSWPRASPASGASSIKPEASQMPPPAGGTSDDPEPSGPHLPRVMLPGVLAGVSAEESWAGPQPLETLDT
T1 sequence (P51168 1-640): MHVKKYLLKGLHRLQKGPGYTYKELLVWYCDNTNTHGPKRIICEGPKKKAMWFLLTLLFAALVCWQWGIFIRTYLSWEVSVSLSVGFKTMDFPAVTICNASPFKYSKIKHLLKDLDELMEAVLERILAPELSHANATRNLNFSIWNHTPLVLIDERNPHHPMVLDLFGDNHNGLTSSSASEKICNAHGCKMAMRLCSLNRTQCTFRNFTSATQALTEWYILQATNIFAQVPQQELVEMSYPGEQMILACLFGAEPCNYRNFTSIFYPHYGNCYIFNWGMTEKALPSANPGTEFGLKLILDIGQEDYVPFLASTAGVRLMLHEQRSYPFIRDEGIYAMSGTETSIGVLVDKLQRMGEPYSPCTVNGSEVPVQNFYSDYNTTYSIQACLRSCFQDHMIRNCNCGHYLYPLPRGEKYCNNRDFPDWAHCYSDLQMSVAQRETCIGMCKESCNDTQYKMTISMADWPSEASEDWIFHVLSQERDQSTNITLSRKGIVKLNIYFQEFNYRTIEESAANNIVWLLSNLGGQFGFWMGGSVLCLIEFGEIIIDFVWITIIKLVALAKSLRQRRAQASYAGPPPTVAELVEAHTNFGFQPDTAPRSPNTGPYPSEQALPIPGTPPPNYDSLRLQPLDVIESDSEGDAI
T1 sequence (P51170 1-649): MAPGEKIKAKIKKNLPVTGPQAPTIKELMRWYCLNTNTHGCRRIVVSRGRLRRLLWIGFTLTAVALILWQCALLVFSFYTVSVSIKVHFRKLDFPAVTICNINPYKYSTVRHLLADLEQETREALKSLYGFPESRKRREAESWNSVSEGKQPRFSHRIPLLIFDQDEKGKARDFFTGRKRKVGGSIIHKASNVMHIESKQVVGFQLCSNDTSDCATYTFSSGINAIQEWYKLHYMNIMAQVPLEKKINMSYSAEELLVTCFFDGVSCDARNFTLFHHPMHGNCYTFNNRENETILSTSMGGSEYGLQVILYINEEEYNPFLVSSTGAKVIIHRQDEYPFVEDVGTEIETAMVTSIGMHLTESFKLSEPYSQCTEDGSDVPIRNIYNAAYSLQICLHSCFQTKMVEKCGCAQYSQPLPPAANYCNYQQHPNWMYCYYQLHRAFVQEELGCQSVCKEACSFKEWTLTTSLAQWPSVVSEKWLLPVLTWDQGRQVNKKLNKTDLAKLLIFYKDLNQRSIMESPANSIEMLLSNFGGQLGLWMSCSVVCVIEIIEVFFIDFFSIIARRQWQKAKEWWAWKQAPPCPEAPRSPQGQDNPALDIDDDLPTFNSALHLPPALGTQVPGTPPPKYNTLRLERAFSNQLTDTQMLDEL
Protocol: ENaC activation current value, namely, the inward current in ENaC-expressing oocyte was measured as follows.
According to the method described in Motonao Nakamura, Takao Shimizu: Experiment of African clawed frog oocyte, Experimental Medicine Vol. 11, No. 3, 224-232 (1993), oocyte was collected from African clawed frog, […], and the current value was measured by a Two Electrode Voltage Clamp technique. In the present invention, ND96 (96 mM NaCl, 2 mM KCl, 1 mM MgCl2, 5 mM Hepes, 1.8 mM CaCl2, pH 7.6) was used instead of MBS buffer in the above-mentioned document. Injector NANOLITER 2000 manufactured by World Precision Instruments was used for microinjection, OpusXpress 6000A manufactured by Molecular Devices was used for current value measurement by a Two Electrode Voltage Clamp technique, and Clampfit 10.2 software manufactured by Molecular Devices was used for data analysis.
Human ENaC δ, β and γ subunit genes shown by SEQ ID NOs: 1, 2 and 3, respectively, in the Sequence Listing were each cloned into a plasmid vector, and used as a template DNA for cRNA synthesis. cRNA was synthesized using MEGAscript kit manufactured by Ambion and according to the method of the manual of the manufacturer.
A mixture of the same amount of ENaC δ subunit cRNA (0.4 to 0.8 μg/μL), and β and γ subunits cRNA (0.4 μg/μL) was injected into the oocyte of African clawed frog at 27.6 nL per oocyte, and the oocyte was cultured for 16 hours to 72 hours. Thereafter, the oocyte was set on a measuring apparatus OpusXpress 6000A, the electrodes were inserted into the oocyte, the voltage was clamped at a level lower by −30 mV than the resting membrane potential by a Two Electrode Voltage Clamp technique, and the current value was measured.
To measure the ENaC activation potency, oocyte was stimulated with each test compound, and the minimum effective dose (hereinafter to be abbreviated as MED) of the compound at the time point when the electric current started to increase was measured. In this case, the minimum effective dose of the stimulation compound that increased the current value by not less than 10%, as compared to the current value before addition of the compound and without stimulation, was taken as MED. A smaller MED means higher ENaC activation potency.
Each test compound was directly dissolved in ND96, or first dissolved in dimethyl sulfoxide (DMSO) to 100 mM, and then prepared by diluting the solution with ND96 to a concentration used for the evaluation. The concentration of the test compound in ND96 was prepared to various concentrations within the range of 0.1 nM to 300 μm.
ND96 as a perfusion fluid was flowed at a rate of 0.5 mL/min through the measuring apparatus OpusXpress 6000A on which ENaC-expressing oocyte was set, the perfusion fluid was temporarily stopped every 3 minutes to add a test compound solution (0.25 mL) dissolved in ND96 at a rate of 0.5 mL/minute. In this way, the test compound was contacted with ENaC-expressing oocyte, and whether ENaC is activated by the compound was examined by measuring the current value. After addition of the test compound, feeding of the perfusion fluid was resumed to wash away the compound to be ready for the next addition of the compound.
The compound was added successively from a low concentration to a high concentration to stimulate ENaC-expressing oocyte. The concentrations actually added was, for example, 1 nM, 3 nM, 10 nM, 30 nM, 100 nM, 300 nM; 1 μM, 3 μM, 10 μm, 30 μm, 100 μm, 300 μm; 1.2 μM, 6 μM, 30 μm, 150 μm of one test compound. The compound was added from low concentrations to high concentrations at 3 minute intervals. The first compound was added from a low concentration to a high concentration, then the second and the third compounds were similarly added successively to the same oocyte, and changes in the current value were measured. The current value was continuously measured from the start to the end of the experiment. […]

ENaC β subunit = target: T2, ENaC β subunit (Homo sapiens, UniProt P51168); settings: literature statement; cited from earlier work
T2 sequence (P51168 1-640): T1 sequence (P51168 1-640)
T2 sequence (P51170 1-649 partner): T1 sequence (P51170 1-649)
T2 sequence (P37088 1-669 partner): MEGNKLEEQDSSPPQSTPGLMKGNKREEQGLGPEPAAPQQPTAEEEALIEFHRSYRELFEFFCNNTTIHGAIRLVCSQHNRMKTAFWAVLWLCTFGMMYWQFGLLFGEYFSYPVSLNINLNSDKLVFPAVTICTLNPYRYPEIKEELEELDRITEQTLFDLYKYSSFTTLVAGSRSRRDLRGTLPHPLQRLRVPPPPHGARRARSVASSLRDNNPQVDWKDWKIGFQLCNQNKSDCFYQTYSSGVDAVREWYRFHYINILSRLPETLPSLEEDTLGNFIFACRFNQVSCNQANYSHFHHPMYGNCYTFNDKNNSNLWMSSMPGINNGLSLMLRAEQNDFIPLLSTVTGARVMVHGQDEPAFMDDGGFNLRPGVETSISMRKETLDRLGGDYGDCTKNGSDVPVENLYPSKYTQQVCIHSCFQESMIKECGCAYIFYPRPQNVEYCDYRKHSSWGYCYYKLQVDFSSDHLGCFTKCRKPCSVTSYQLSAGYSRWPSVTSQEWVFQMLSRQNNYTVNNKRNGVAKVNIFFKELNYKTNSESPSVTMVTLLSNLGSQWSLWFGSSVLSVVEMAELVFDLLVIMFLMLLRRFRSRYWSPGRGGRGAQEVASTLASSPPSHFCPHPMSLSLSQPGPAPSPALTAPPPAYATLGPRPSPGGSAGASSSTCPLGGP

Row | MED value (minimum effective dose) [1] [µM] | Compound | action on ENaC (ENaC β subunit)
1 | 3 | Cc1cc(O)c(C(=O)NCCc2c[nH]c3ccccc23)c(O)c1 [Example 124] | 
2 | 1 | O=C(NCCc1c[nH]c2ccccc12)c1c(O)cc(O)cc1O [Example 125] | 
3 |  | Cc1cccc2[nH]cc(SC(CC(C)C)C(=O)NCCO)c12 (stereo not drawn) [Example S3969, N-(2-hydroxyethyl)-4-methyl-2-(4-methyl-1H-indol-3-ylthio)pentanamide] | stimulant (activator) of ENaC that acts on β subunit
